The source made the active and inactive calls.
Experiments:
Assay type in all cases: functional, organism-based
Proteus vulgaris = assay: Antibacterial activity against Proteus vulgaris
Klebsiella pneumoniae = assay: Antibacterial activity against Klebsiella ozaenae; conditions: subsp. ozaenae
Lactococcus lactis = assay: Antibacterial activity against Streptococcus lactis

Measured: Activity

CC(=O)O[C@]1(C)[C@@H]2C=C(C(C)(C)O)C(=O)C[C@@]2(C)CC[C@H]1OC(=O)C(C)(O)C(C)Cl (stereo partly drawn)
active: all assays above

From ChEMBL document CHEMBL1149717, “Three New Eudesmane Sesquiterpenes from Pluchea arguta” (J Nat Prod, 1992)
